For one assay, the target named is T1, human LTA4 hydrolase (Homo sapiens, UniProt P09960).
T1 sequence (P09960 1-611): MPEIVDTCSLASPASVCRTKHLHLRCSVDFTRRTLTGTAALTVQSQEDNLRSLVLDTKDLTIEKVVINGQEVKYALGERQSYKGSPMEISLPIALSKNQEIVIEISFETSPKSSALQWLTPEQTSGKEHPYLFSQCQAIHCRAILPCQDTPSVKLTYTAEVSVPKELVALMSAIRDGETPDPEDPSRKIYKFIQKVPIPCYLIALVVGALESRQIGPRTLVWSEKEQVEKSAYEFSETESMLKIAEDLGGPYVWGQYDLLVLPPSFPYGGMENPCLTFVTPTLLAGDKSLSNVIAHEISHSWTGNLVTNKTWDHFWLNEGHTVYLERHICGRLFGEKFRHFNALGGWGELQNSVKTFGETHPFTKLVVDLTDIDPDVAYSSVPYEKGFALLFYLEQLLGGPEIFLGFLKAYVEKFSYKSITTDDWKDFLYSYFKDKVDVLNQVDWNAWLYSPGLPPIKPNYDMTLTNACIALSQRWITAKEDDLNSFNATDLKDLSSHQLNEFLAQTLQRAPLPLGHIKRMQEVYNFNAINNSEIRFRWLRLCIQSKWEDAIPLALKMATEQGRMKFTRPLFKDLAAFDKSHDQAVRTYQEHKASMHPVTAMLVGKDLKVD
As to the kind of experiment: LTA4H enzyme assay (cleavage of Arg-AMC, fluorescence). The assay is classed as biochemical. The conditions noted are these: LTA4H enzyme 1 nM, Arg-AMC substrate 50 μM, room temperature 1 h. As to the method: Compounds are assessed for the ability to interact with human LTA4 hydrolase in an enzymatic assay that measures the ability of the enzyme to cleave the peptide bond of arginyl-aminomethylcoumarin (Arg-AMC). LTA4H Enzyme (1 nM final), Arg-AMC substrate (50 μM final), and compound are combined in a reaction buffer (50 mM Tris-HCl (pH 7.5), 100 mM KCl, 0.5% bovine serum albumin) at room temperature for 1 h. The formation of product is assessed by measuring the fluorescence of aminomethylcoumarin product (excitation wavelength 380 nm/emission wavelength 460 nm).

Assay [1] has as its system LTB4 production in human whole blood. Kind of assay: LTB4 production inhibition assay in human whole blood (calcimycin-stimulated). The assay is classed as cell-based. The settings on record: heparinized human whole blood, 15 min 37° C., calcimycin 20 μM 30 min, plasma LTB4 by HTRF. As to the method:
Compounds of the invention are additionally tested in a human whole blood assay to determine their ability to inhibit the synthesis of LTB4 in a cellular system. Compounds are combined with heparinized human whole blood and incubated for 15 minutes at 37° C. Calcimycin (20 μM final, prepared in phosphate-buffered saline, pH 7.4) is then added and the mixture is incubated for another 30 minutes at 37° C. The samples are centrifuged for 5 min at low speed (1500×g) and the plasma layer is removed. Plasma LTB4 concentrations are then measured using an antibody-based homogenous time-resolved fluorescence method (CisBio, Bedford, Mass.).
A general note: In TR-FRET formats the signal depends on donor and acceptor labels being close together.

Consider 31 molecules from US9139567B2, “Arylpyrazole ethers as inhibitors of leukotriene A4 hydrolase” (Boehringer Ingelheim International GmbH, priority 2011, dated 2015).

For orientation: IC50 means the midpoint of a concentration-inhibition curve. On to `CC(Cc1ccccc1)Oc1ccc(Oc2ccc(-c3ccn[nH]3)cc2)cc1` (centres unmarked) [Example 31, 5-{4-[4-(1-methyl-2-phenylethoxy)phenoxy]phenyl}-1H-pyrazole], for which the IC50 was 900 nM against human LTA4 hydrolase and at least 5 µM in assay [1].

In the case of `CC(COc1ccc(Oc2ccc(-c3ccn[nH]3)cc2)cc1)c1ccccc1` (centres unmarked) [Example 32, 5-{4-[4-(2-phenylpropoxy)phenoxy]phenyl}-1H-pyrazole], the values for the IC50 (on human LTA4 hydrolase; in assay [1]) were 360 nM and at least 5 µM, respectively.

`c1ccc(CCOc2ccc(Oc3ccc(-c4ccn[nH]4)cc3)cc2)nc1` [Example 33, 2-(2-{4-[4-(1H-pyrazol-5-yl)phenoxy]phenoxy}ethyl)pyridine]: the IC50 amounted to 5.2 nM against human LTA4 hydrolase and 3.36 µM in assay [1].

Turning to `c1cncc(COc2ccc(Oc3ccc(-c4ccn[nH]4)cc3)cc2)c1` [Example 34, 3-({4-[4-(1H-pyrazol-5-yl)phenoxy]phenoxy}methyl)pyridine], the 50% inhibitory concentration (IC50) against human LTA4 hydrolase amounted to 1.5 nM; in assay [1], 2.54 µM.

For `c1cc(COc2ccc(Oc3ccc(-c4ccn[nH]4)cc3)cc2)ccn1` [Example 35, 4-({4-[4-(1H-pyrazol-5-yl)phenoxy]phenoxy}methyl)pyridine], the results for the IC50 (on human LTA4 hydrolase; in assay [1]) were 3.9 nM and 1.78 µM, respectively.

As to `c1cc(-c2ccc(Oc3ccc(OCc4cn5ccsc5n4)cc3)cc2)[nH]n1` [Example 36, 6-({4-[4-(1H-pyrazol-5-yl)phenoxy]phenoxy}methyl)imidazo[2,1-b][1,3]thiazole], the IC50 at human LTA4 hydrolase turned out to be 6 nM; in assay [1], 4.5 µM.

Take `CS(=O)(=O)c1ccc(COc2ccc(Oc3ccc(-c4ccn[nH]4)cc3)cc2)cc1` [Example 37, 5-[4-(4-{[4-(methylsulfonyl)benzyl]oxy}phenoxy)phenyl]-1H-pyrazole]: the IC50 amounted to 3.5 nM on human LTA4 hydrolase and 2.09 µM in assay [1].

With `c1cc(-c2ccc(Oc3ccc(OCc4cscn4)cc3)cc2)[nH]n1` [Example 38, 4-{4-[4-(2H-Pyrazol-3-yl)-phenoxy]-phenoxymethyl}-thiazole], the results for the half-maximal inhibitory concentration (IC50) (at human LTA4 hydrolase; in assay [1]) were 3.3 nM and at least 5 µM, respectively.

As to `c1cc(-c2ccc(Oc3ccc(OCc4cnc5[nH]ccc5c4)cc3)cc2)[nH]n1` [Example 39, 5-({4-[4-(1H-pyrazol-5-yl)phenoxy]phenoxy}methyl)-1H-pyrrolo[2,3-b]pyridine], the figures for the IC50 (against human LTA4 hydrolase; in assay [1]) were 7.6 nM and at least 5 µM, respectively.

With `c1cc(CCOc2ccc(Oc3ccc(-c4ccn[nH]4)cc3)cc2)ccn1` [Example 40, 4-(2-{4-[4-(1H-pyrazol-5-yl)phenoxy]phenoxy}ethyl)pyridine], the IC50 against human LTA4 hydrolase worked out at 3.2 nM; in assay [1], 3.12 µM.

Take `c1ccc2[nH]c(NCCOc3ccc(Oc4ccc(-c5ccn[nH]5)cc4)cc3)nc2c1` [Example 41, N-(2-{4-[4-(1H-pyrazol-5-yl)phenoxy]phenoxy}ethyl)-1H-benzimidazol-2-amine]: the half-maximal inhibitory concentration (IC50) against human LTA4 hydrolase turned out to be 0.2 nM; in assay [1] it was 0.673 µM.

As for `Cc1nccn1CCOc1ccc(Oc2ccc(-c3ccn[nH]3)cc2)cc1` [Example 42, 5-(4-{4-[2-(2-methyl-1H-imidazol-1-yl)ethoxy]phenoxy]phenyl)-1H-pyrazole], the values for the IC50 (against human LTA4 hydrolase; in assay [1]) were 0.3 nM and 0.172 µM, respectively.

For the molecule `c1ccc2c(c1)ncn2CCOc1ccc(Oc2ccc(-c3ccn[nH]3)cc2)cc1` [Example 43, 1-(2-{4-[4-(1H-pyrazol-5-yl)phenoxy]phenoxy}ethyl)-1H-benzimidazole], the figures for the IC50 (on human LTA4 hydrolase; in assay [1]) were 1.3 nM and 1.91 µM, respectively.

On to `c1cnc(COc2ccc(Oc3ccc(-c4ccn[nH]4)cc3)cc2)cn1` [Example 44, 2-({4-[4-(1H-pyrazol-5-yl)phenoxy]phenoxy}methyl)pyrazine], for which the half-maximal inhibitory concentration (IC50) on human LTA4 hydrolase was 1.1 nM; in assay [1] it was 0.766 µM.

Take `c1ccc2[nH]c(CCOc3ccc(Oc4ccc(-c5ccn[nH]5)cc4)cc3)nc2c1` [Example 45, 2-(2-{4-[4-(1H-pyrazol-5-yl)phenoxy]phenoxy}ethyl)-1H-benzimidazole]: the IC50 against human LTA4 hydrolase was 1.7 nM; in assay [1] it was at least 5 µM.

Take `c1cc(-c2ccc(Oc3ccc(OCc4cc[nH]n4)cc3)cc2)[nH]n1` [Example 46, 3-({4-[4-(1H-pyrazol-5-yl)phenoxy]phenoxy}methyl)-1H-pyrazole]: the IC50 against human LTA4 hydrolase came out at 6.1 nM; in assay [1], 4.9 µM.

Turning to `c1cnc2c(c1)CCC2Oc1ccc(Oc2ccc(-c3ccn[nH]3)cc2)cc1` (centres unmarked) [Example 47, 7-{4-[4-(1H-pyrazol-5-yl)phenoxy]phenoxy}-6,7-dihydro-5H-cyclopenta[b]pyridine], the results for the half-inhibitory concentration (IC50) (against human LTA4 hydrolase; in assay [1]) were 82.4 nM and at least 5 µM, respectively.

Turning to `CC(Oc1ccc(Oc2ccc(-c3ccn[nH]3)cc2)cc1)c1ccncc1` (centres unmarked) [Example 48, 4-(1-{4-[4-(1H-pyrazol-5-yl)phenoxy]phenoxy}ethyl)pyridine], the IC50 on human LTA4 hydrolase stood at 16.9 nM; in assay [1], 3.92 µM.

Regarding `c1cc(-c2ccc(Oc3ccc(OCc4cnc5cc[nH]c5c4)cc3)cc2)[nH]n1` [Example 49, 6-({4-[4-(1H-pyrazol-5-yl)phenoxy]phenoxy}methyl)-1H-pyrrolo[3,2-b]pyridine], the half-maximal inhibitory concentration (IC50) came out at 1.2 nM against human LTA4 hydrolase and 3.14 µM in assay [1].

Consider `c1cnn(CCCOc2ccc(Oc3ccc(-c4ccn[nH]4)cc3)cc2)c1` [Example 50, 1-(3-{4-[4-(1H-pyrazol-5-yl)phenoxy]phenoxy}propyl)-1H-pyrazole], for which the IC50 on human LTA4 hydrolase was determined as 1.2 nM; in assay [1], 2.11 µM.

As for `CC(CCOc1ccc(Oc2ccc(-c3ccn[nH]3)cc2)cc1)n1cccn1` (centres unmarked) [Example 51, 1-(1-methyl-3-{4-[4-(1H-pyrazol-5-yl)phenoxy]phenoxy}propyl)-1H-pyrazole], the 50% inhibitory concentration (IC50) at human LTA4 hydrolase was found to be 4 nM; in assay [1], 3.11 µM.

Regarding `c1cc(-c2ccc(Oc3ccc(OCc4ccno4)cc3)cc2)[nH]n1` [Example 52, 5-({4-[4-(1H-pyrazol-5-yl)phenoxy]phenoxy}methyl)isoxazole], the IC50 on human LTA4 hydrolase came out at 4.1 nM; in assay [1] it was 2.6 µM.

On to `c1ccn2cc(COc3ccc(Oc4ccc(-c5ccn[nH]5)cc4)cc3)nc2c1` [Example 53, 2-({4-[4-(1H-pyrazol-5-yl)phenoxy]phenoxy}methyl)imidazo[1,2-a]pyridine], for which the figures for the IC50 (against human LTA4 hydrolase; in assay [1]) were 3.7 nM and at least 5 µM, respectively.

With `c1cc(-c2ccc(Oc3ccc(OCc4cocn4)cc3)cc2)[nH]n1` [Example 54, 4-({4-[4-(1H-pyrazol-5-yl)phenoxy]phenoxy}methyl)-1,3-oxazole], the values for the IC50 (against human LTA4 hydrolase; in assay [1]) were 4.2 nM and at least 5 µM, respectively.

As for `c1cc(-c2ccc(Oc3ccc(OCCc4cn[nH]c4)cc3)cc2)[nH]n1` [Example 55, 4-(2-{4-[4-(1H-pyrazol-5-yl)phenoxy]phenoxy}ethyl)-1H-pyrazole], the IC50 at human LTA4 hydrolase turned out to be 7 nM; in assay [1] it was 2.5 µM.

Turning to `Cn1ncnc1COc1ccc(Oc2ccc(-c3ccn[nH]3)cc2)cc1` [Example 56, 1-methyl-5-({4-[4-(1H-pyrazol-5-yl)phenoxy]phenoxy}methyl)-1H-1,2,4-triazole], the IC50 was 0.6 nM at human LTA4 hydrolase and at least 5 µM in assay [1].

Regarding `Cn1nc(COc2ccc(Oc3ccc(-c4ccn[nH]4)cc3)cc2)cc1-c1ccco1` [Example 57, 5-(2-furyl)-1-methyl-3-({4-[4-(1H-pyrazol-5-yl)phenoxy]phenoxy}methyl)-1H-pyrazole], the values for the IC50 (against human LTA4 hydrolase; in assay [1]) were 11 nM and at least 5 µM, respectively.

Take `C[C@H](Oc1ccc(Oc2ccc(-c3ccn[nH]3)cc2)cc1)c1ccccn1` [Example 58, 2-[(1S)-1-{4-[4-(1H-pyrazol-5-yl)phenoxy]phenoxy}ethyl]pyridine]: the IC50 is 44 nM against human LTA4 hydrolase and at least 5 µM in assay [1].

Take `C[C@@H](Oc1ccc(Oc2ccc(-c3ccn[nH]3)cc2)cc1)c1ccccn1` [Example 59, 2-[(1R)-1-{4-[4-(1H-pyrazol-5-yl)phenoxy]phenoxy}ethyl]pyridine]: the values for the half-maximal inhibitory concentration (IC50) (against human LTA4 hydrolase; in assay [1]) were 42.7 nM and at least 5 µM, respectively.

With `Cc1nc(COc2ccc(Oc3ccc(-c4ccn[nH]4)cc3)cc2)co1` [Example 60, 2-methyl-4-({4-[4-(1H-pyrazol-5-yl)phenoxy]phenoxy}methyl)-1,3-oxazole], the 50% inhibitory concentration (IC50) against human LTA4 hydrolase was 3.9 nM; in assay [1] it was at least 5 µM.

With `Cn1nccc1COc1ccc(Oc2ccc(-c3ccn[nH]3)cc2)cc1` [Example 61, 1-methyl-5-({4-[4-(1H-pyrazol-5-yl)phenoxy]phenoxy}methyl)-1H-pyrazole], the IC50 on human LTA4 hydrolase came to 1.4 nM; in assay [1], 1.12 µM.
